Assay results published in US20080269526A1, “METHODS OF MAKING AN […]” (SAIC […], IP B.V., priority 2004, published 2008).

Assay: Solubility of K Rimar in water
Details: 20° C. (RT)
Text: The solubility of the potassium salt of perfluorobutanesulfonic acid, K Rimar, is described in Table 2.

O=S(=O)([O-])C(F)(F)C(F)(F)C(F)(F)C(F)(F)F.[K+] [K Rimar, Perfluorobutane sulfonate, potassium salt]
Concentration at which K Rimar is soluble: less than 0.5 g
